Measured values taken from patent publication US20250296971A1, “GASTRIC INHIBITORY PEPTIDE RECEPTOR LIGANDS” (priority 2021, published 2025).
Where two headings read alike, the source gives them in different places. *1 amine or outer side, *2 acyl side, *3 side chain or, on linkers, in order; H or OH if unused. Where a SMILES comes first, the peptide text is derived from it. Bridges are numbered along the chain shown (N, C = ends). [ ]: non-standard residue; d: D form. The star is where a group is joined. X5 = NC(=O)[C@H](CCCCNC(=O)CN1CCN(CC(=O)O)CCN(CC(=O)O)CCN(CC(=O)O)CC1)NC(=O)CCC(=O)NCCCOCCOCCOCCCN*; X3 = O=C(O)CN1CCN(CC(=O)O)CCN(CC(=O)NCCCOCCOCCOCCCN*)CCN(CC(=O)O)CC1; NH(1-deoxy-D-glucityl) = OC[C@@H](O)[C@@H](O)[C@H](O)[C@@H](O)CN*; DOTA = O=C(O)CN1CCN(CC(=O)O)CCN(CC(=O)*)CCN(CC(=O)O)CC1; Trp(5-Cl) = N[C@@H](Cc1c[nH]c2ccc(Cl)cc12)C(=O)O; Pyridine(2,6-diCH2) = c1cc(C[*:1])nc(C[*:2])c1; Trp(7-F) = N[C@@H](Cc1c[nH]c2c(F)cccc12)C(=O)O; Pro(4R-NH2) = N[C@H]1CN[C@H](C(=O)O)C1; mXylylene = c1cc(C[*:1])cc(C[*:2])c1; Bta = N[C@@H](Cc1csc2ccccc12)C(=O)O; Glutaryl = O=C(CCCC(=O)[*:2])[*:1]; X7 = c1cc(CSCCN[*:2])cc(C[*:1])c1; Hyp = O=C(O)[C@@H]1C[C@@H](O)CN1; X1 = O=C(CN1CCC(N[*:1])CC1)[*:2]; tBuAla = CC(C)(C)C[C@H](N)C(=O)O; Cha = N[C@@H](CC1CCCCC1)C(=O)O; αMeL = CC(C)C[C@](C)(N)C(=O)O; Aic = NC1(C(=O)O)Cc2ccccc2C1; Suc = O=C(CCC(=O)[*:2])[*:1]; Api = NC1(C(=O)O)CCNCC1; Thp = NC1(C(=O)O)CCOCC1; Aib = CC(C)(N)C(=O)O

Target: T1, GIPR (CHO-K1-hGIPR cells) (Homo sapiens, UniProt P48546)
T1 construct: host or cells: CHO-K1
T1 sequence (P48546 22-466): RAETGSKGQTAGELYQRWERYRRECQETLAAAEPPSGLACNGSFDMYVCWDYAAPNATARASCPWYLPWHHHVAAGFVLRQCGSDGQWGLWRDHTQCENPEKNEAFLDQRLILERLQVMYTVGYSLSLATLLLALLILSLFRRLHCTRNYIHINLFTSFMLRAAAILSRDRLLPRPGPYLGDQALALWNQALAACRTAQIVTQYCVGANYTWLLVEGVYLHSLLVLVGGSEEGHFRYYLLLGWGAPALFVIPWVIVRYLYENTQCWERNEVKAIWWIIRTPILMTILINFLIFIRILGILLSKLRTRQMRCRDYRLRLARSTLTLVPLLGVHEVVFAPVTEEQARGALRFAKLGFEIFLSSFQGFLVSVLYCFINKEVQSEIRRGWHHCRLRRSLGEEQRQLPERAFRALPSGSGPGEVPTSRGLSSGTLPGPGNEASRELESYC
Experiment: FACS binding assay
Details: read-out: pIC50 Category (converted)
Procedure, shortened: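 Median fluorescence in the APC channel, measured on washed CHO-K1 cells overexpressing human GIPR, was fitted by four-parameter logistic regression against peptide concentration to yield EC50 or IC50 values. Secondary labelling used APC-streptavidin (1 μg/mL, 30 min, ice).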

[1] = competition with 20 nM GIP-057, 4° C., 1 hour
[2] = competition with 20 nM GIP-057, 4° C. for 1 hour

Row | IC50 [1] [nM] | IC50 [2] [nM] | Compound
1 | 10 to 79.4 |  | CC[C@H](C)[C@@H]1NC(=O)[C@H](CC(C)C)NC(=O)[C@@H](CCCCNC(=O)CN2CCN(CC(=O)O)CCN(CC(=O)O)CCN(CC(=O)O)CC2)NC(=O)[C@@H](NC(=O)[C@@H](CC(C)C)NC(=O)[C@H](CCC(=O)O)NC(=O)[C@@H]2C[C@@H](N)CN2C(=O)[C@H](Cc2c[nH]c3ccc(Cl)cc23)NC(=O)[C@H](Cc2c[nH]c3ccccc23)NC(=O)[C@H](CC(=O)O)NC(=O)CCCC(=O)NC[C@H](O)[C@@H](O)[C@H](O)[C@H](O)CO)CSCc2cccc(n2)CSC[C@@H](C(=O)NC2CCN(CC(=O)N[C@H](CCC(=O)NC[C@H](O)[C@@H](O)[C@H](O)[C@H](O)CO)C(N)=O)CC2)NC1=O [GIP-025, AGLU-Glutar-Asp-Trp-5Clw-Tap-Glu-leu-[Cys(2Lut)-lys(DOTA)-Leu-Ile-Cys]-APAc-glu(AGLU)-NH2] ({NH(1-deoxy-D-glucityl)-Glutaryl}-DW[Trp(5-Cl)][Pro(4R-NH2)]E[dL]C[dK](DOTA)LIC[X1][dE](NH(1-deoxy-D-glucityl))-NH2; linker 7-11 via Pyridine(2,6-diCH2))
2 | < 10 |  | CC[C@H](C)[C@@H]1NC(=O)[C@H](CC(C)C)NC(=O)C2(CCOCC2)NC(=O)[C@@H](NC(=O)[C@@H](CC(C)C)NC(=O)[C@H](CCC(=O)O)NC(=O)[C@@H]2CCCN2C(=O)[C@H](Cc2c[nH]c3ccc(Cl)cc23)NC(=O)[C@H](Cc2c[nH]c3ccccc23)NC(=O)[C@H](CC(=O)O)NC(=O)CCC(=O)NCCCOCCOCCOCCCNC(=O)CN2CCN(CC(=O)O)CCN(CC(=O)O)CCN(CC(=O)O)CC2)CSCc2cccc(c2)CSCCNC1=O [GIP-087, DOTA-Ttds-Asp-Trp-5Clw-Pro-Glu-leu-[Cys(3MeBn)-Thp-Leu-Ile-AET]] ({X3-Suc}-DW[Trp(5-Cl)]PE[dL]C[Thp]LI; linker 7-C via X7)
3 | < 10 |  | CC[C@H](C)[C@@H]1NC(=O)[C@H](CC(C)C)NC(=O)C(C)(C)NC(=O)[C@@H](NC(=O)[C@H](CC(C)C)NC(=O)[C@H](CCC(=O)O)NC(=O)[C@@H]2CCCN2C(=O)[C@H](Cc2csc3ccccc23)NC(=O)[C@H](Cc2c[nH]c3ccccc23)NC(=O)[C@H](CC(=O)O)NC(C)=O)CSCc2cccc(c2)CSC[C@@H](C(=O)NCCCOCCOCCOCCCNC(=O)CCC(=O)N[C@@H](CCCCNC(=O)CN2CCN(CC(=O)O)CCN(CC(=O)O)CCN(CC(=O)O)CC2)C(N)=O)NC1=O [GIP-075, Ac-Asp-Trp-Bta-Pro-Glu-Leu-[Cys(3MeBn)-Aib-Leu-Ile-Cys]-Ttds-Lys(DOTA)-NH2] (Ac-DW[Bta]PELC[Aib]LIC-X5; linker 7-11 via mXylylene)
4 | 10 to 79.4 |  | CC[C@H](C)[C@@H]1NC(=O)[C@H](CC2CCCCC2)NC(=O)C(C)(C)NC(=O)[C@@H](NC(=O)[C@H](CC(C)C)NC(=O)[C@H](CCC(=O)O)NC(=O)[C@@H]2CCCN2C(=O)[C@H](Cc2c[nH]c3ccccc23)NC(=O)[C@H](Cc2c[nH]c3ccccc23)NC(=O)[C@H](CC(=O)O)NC(C)=O)CSCc2cccc(c2)CSC[C@@H](C(=O)NCCCOCCOCCOCCCNC(=O)CCC(=O)N[C@@H](CCCCNC(=O)CN2CCN(CC(=O)O)CCN(CC(=O)O)CCN(CC(=O)O)CC2)C(N)=O)NC1=O [GIP-134, Ac-Asp-Trp-Trp-Pro-Glu-Leu-[Cys(3MeBn)-Aib-Cha-Ile-Cys]-Ttds-Lys(DOTA)-NH2] (Ac-DWWPELC[Aib][Cha]IC-X5; linker 7-11 via mXylylene)
5 | < 10 |  | CC[C@H](C)[C@@H]1NC(=O)[C@H](CC(C)C)NC(=O)C2(CCOCC2)NC(=O)[C@@H](NC(=O)[C@@H](CC(C)C)NC(=O)[C@H](CCC(=O)O)NC(=O)[C@@H]2C[C@@H](O)CN2C(=O)[C@H](Cc2c[nH]c3c(F)cccc23)NC(=O)[C@H](Cc2c[nH]c3ccccc23)NC(=O)[C@H](CC(=O)O)NC(C)=O)CSCc2cccc(n2)CSC[C@@H](C(N)=O)NC1=O [GIP-227, Ac-Asp-Trp-7Fw-Hyp-Glu-leu-[Cys(2Lut)-Thp-Leu-Ile-Cys]-NH2] (Ac-DW[Trp(7-F)][Hyp]E[dL]C[Thp]LIC-NH2; linker 7-11 via Pyridine(2,6-diCH2))
6 | 10 to 79.4 |  | CC[C@H](C)[C@@H]1NC(=O)[C@H](CC(C)C)NC(=O)C(C)(C)NC(=O)[C@@H](NC(=O)[C@H](CC(C)(C)C)NC(=O)[C@H](CCC(=O)O)NC(=O)[C@@H]2CCCN2C(=O)[C@H](Cc2c[nH]c3ccccc23)NC(=O)[C@H](Cc2c[nH]c3ccccc23)NC(=O)[C@H](CC(=O)O)NC(C)=O)CSCc2cccc(c2)CSC[C@@H](C(=O)NCCCOCCOCCOCCCNC(=O)CCC(=O)N[C@@H](CCCCNC(=O)CN2CCN(CC(=O)O)CCN(CC(=O)O)CCN(CC(=O)O)CC2)C(N)=O)NC1=O [GIP-132, Ac-Asp-Trp-Trp-Pro-Glu-Npg-[Cys(3MeBn)-Aib-Leu-Ile-Cys]-Ttds-Lys(DOTA)-NH2] (Ac-DWWPE[tBuAla]C[Aib]LIC-X5; linker 7-11 via mXylylene)
7 | < 10 |  | CC[C@H](C)[C@@H]1NC(=O)[C@H](CC(C)C)NC(=O)C(C)(C)NC(=O)[C@@H](NC(=O)[C@@H](CC(C)C)NC(=O)[C@H](CCC(=O)O)NC(=O)[C@@H]2C[C@@H](O)CN2C(=O)[C@H](Cc2c[nH]c3ccc(Cl)cc23)NC(=O)[C@H](Cc2c[nH]c3ccccc23)NC(=O)[C@H](CC(=O)O)NC(=O)CCC(=O)NCCCOCCOCCOCCCNC(=O)CN2CCN(CC(=O)O)CCN(CC(=O)O)CCN(CC(=O)O)CC2)CSCc2cccc(c2)CSCCNC1=O [GIP-094, DOTA-Ttds-Asp-Trp-5Clw-Hyp-Glu-leu-[Cys(3MeBn)-Aib-Leu-Ile-AET]] ({X3-Suc}-DW[Trp(5-Cl)][Hyp]E[dL]C[Aib]LI; linker 7-C via X7)
8 | < 10 |  | CC[C@H](C)[C@@H]1NC(=O)[C@H](CC(C)C)NC(=O)C2(Cc3ccccc3C2)NC(=O)[C@@H](NC(=O)[C@@H](CC(C)C)NC(=O)[C@H](CCC(=O)O)NC(=O)[C@@H]2C[C@@H](O)CN2C(=O)[C@H](Cc2c[nH]c3ccc(Cl)cc23)NC(=O)[C@H](Cc2c[nH]c3ccccc23)NC(=O)[C@H](CC(=O)O)NC(C)=O)CSCc2cccc(n2)CSC[C@@H](C(N)=O)NC1=O [GIP-206, Ac-Asp-Trp-5Clw-Hyp-Glu-leu-[Cys(2Lut)-Aic-Leu-Ile-Cys]-NH2] (Ac-DW[Trp(5-Cl)][Hyp]E[dL]C[Aic]LIC-NH2; linker 7-11 via Pyridine(2,6-diCH2))
9 |  | > 1000 | CC[C@H](C)[C@@H]1NC(=O)[C@H](CC(C)C)NC(=O)C(C)(C)NC(=O)[C@@H](NC(=O)[C@](C)(CC(C)C)NC(=O)[C@H](CCC(=O)O)NC(=O)[C@@H]2CCCN2C(=O)[C@H](Cc2c[nH]c3ccccc23)NC(=O)[C@H](Cc2c[nH]c3ccccc23)NC(=O)[C@H](CC(=O)O)NC(C)=O)CSCc2cccc(c2)CSC[C@@H](C(=O)NCCCOCCOCCOCCCNC(=O)CCC(=O)N[C@@H](CCCCNC(=O)CN2CCN(CC(=O)O)CCN(CC(=O)O)CCN(CC(=O)O)CC2)C(N)=O)NC1=O [GIP-296, Ac-Asp-Trp-Trp-Pro-Glu-Aml-[Cys(3MeBn)-Aib-Leu-Ile-Cys]-Ttds-Lys(DOTA)-NH2] (Ac-DWWPE[αMeL]C[Aib]LIC-X5; linker 7-11 via mXylylene)
10 |  | < 10 | CC[C@H](C)[C@@H]1NC(=O)[C@H](CC(C)C)NC(=O)C2(CCOCC2)NC(=O)[C@@H](NC(=O)[C@@H](CC(C)C)NC(=O)[C@H](CCC(=O)O)NC(=O)[C@@H]2C[C@@H](O)CN2C(=O)[C@H](Cc2c[nH]c3ccc(Cl)cc23)NC(=O)[C@H](Cc2c[nH]c3ccccc23)NC(=O)[C@@H](CC(=O)O)NC(C)=O)CSCc2cccc(n2)CSC[C@@H](C(N)=O)NC1=O [GIP-381, Ac-asp-Trp-5Clw-Hyp-Glu-leu-[Cys(2Lut)-Thp-Leu-Ile-Cys]-NH2] (Ac-[dD]W[Trp(5-Cl)][Hyp]E[dL]C[Thp]LIC-NH2; linker 7-11 via Pyridine(2,6-diCH2))
11 | 10 to 79.4 |  | CC[C@H](C)[C@@H]1NC(=O)[C@H](CC(C)C)NC(=O)C2(CCN(C(=O)CN3CCN(CC(=O)O)CCN(CC(=O)O)CCN(CC(=O)O)CC3)CC2)NC(=O)[C@@H](NC(=O)[C@@H](CC(C)C)NC(=O)[C@H](CCC(=O)O)NC(=O)[C@@H]2C[C@@H](N)CN2C(=O)[C@H](Cc2c[nH]c3ccc(Cl)cc23)NC(=O)[C@H](Cc2c[nH]c3ccccc23)NC(=O)[C@H](CC(=O)O)NC(=O)CCCC(=O)NC[C@H](O)[C@@H](O)[C@H](O)[C@H](O)CO)CSCc2cccc(n2)CSC[C@@H](C(=O)NC2CCN(CC(=O)N[C@H](CCC(=O)NC[C@H](O)[C@@H](O)[C@H](O)[C@H](O)CO)C(N)=O)CC2)NC1=O [GIP-051, AGLU-Glutar-Asp-Trp-5Clw-Tap-Glu-leu-[cys(2Lut)-Apc(DOTA)-Leu-Ile-Cys]-APAc-glu(AGLU)-NH2] ({NH(1-deoxy-D-glucityl)-Glutaryl}-DW[Trp(5-Cl)][Pro(4R-NH2)]E[dL]C[Api](DOTA)LIC[X1][dE](NH(1-deoxy-D-glucityl))-NH2; linker 7-11 via Pyridine(2,6-diCH2))
12 |  | 100 to 794 | CC[C@H](C)[C@@H]1NC(=O)[C@H](CC(C)C)NC(=O)[C@@H](C)NC(=O)[C@@H](NC(=O)[C@@H](CC(C)C)NC(=O)[C@H](CCC(=O)O)NC(=O)[C@@H]2CCCN2C(=O)[C@H](Cc2c[nH]c3ccccc23)NC(=O)[C@H](Cc2c[nH]c3ccccc23)NC(=O)[C@H](CC(=O)O)NC(=O)CCC(=O)NCCCOCCOCCOCCCNC(=O)CN2CCN(CC(=O)O)CCN(CC(=O)O)CCN(CC(=O)O)CC2)CSCc2cccc(c2)CSC[C@@H](C(N)=O)NC1=O [GIP-268, DOTA-Ttds-Asp-Trp-Trp-Pro-Glu-leu-[Cys(3MeBn)-ala-Leu-Ile-Cys]-NH2] ({X3-Suc}-DWWPE[dL]C[dA]LIC-NH2; linker 7-11 via mXylylene)
